Results: US7879115B2, “Method for using a static electric field to induce crystallization and to control crystal form” (Intellectual Ventures Holding 19, LLC, priority 2004, dated 2011)
Read-outs that look alike come from different tables or passages of the source. Each block holds one compound with its values, some of them ahead of it.

Experiments:
[1] = Static (DC) electric field induced nucleation of aged supersaturated aqueous solutions; polymorph by x-ray powder diffraction; type: physicochemical; details: for timescale on which macroscopic crystals form: supersaturated aqueous solution subjected to static electric field; for percent of the exposed solutions that nucleated within the 10-minute exposure time: 6×10^5 V/m DC field, γ glycine
Description: Great care was taken to exclude dust from samples. Supersaturated solutions were generated by heating the tubes to 62-64° C. and holding them at that temperature in an ultrasonicator overnight.
A chamber was constructed consisting of two brass electrodes separated by a 5 mm insulating gap, with a hole drilled down through the center, parallel to the gap-electrode interface, with a diameter large enough to accommodate the test tube, to create a high voltage chamber. Test tubes containing the aged solutions were placed in the high voltage chamber.
A DC voltage was applied across the electrodes, large enough to produce electric fields in the range of 400,000 to 800,000 V/m. Tests tubes containing the aged solutions were placed in the high-voltage chamber. […] If crystals formed in the test tubes, the crystals were removed from the solution and dried. The structure of these crystals was analyzed by grinding up the crystal into a powder and obtaining an x-ray powder diffraction pattern.
(§1) The supersaturated solutions were in the concentration range of 5.5 to 6.0 molal. […] These solutions had supersaturations (SS) ranging from 1.85 to 2.0; SS=c/csat, where csat is the saturation concentration.
Solutions were aged for 2 to 5 weeks and exposed to a 6×10^5 V/m DC field for 10 minutes. Semi-cylindrical electrodes were constructed from a 5 cm×5 cm×5.5 cm block of brass, with the center drilled out so that the sample tubes would fit snugly, and then split in half and material removed to create a 5 mm gap, as shown in FIG. 1. […] All sharp edges were rounded in the actual electrodes. The electrodes are insulated and held firmly in position by Delrin plates, screwed together to make a covered box, with 5 mm thick spacers to hold the cylindrical electrodes at the proper spacing. There are two long narrow gaps in the insulation, matching the electrode gap 20, so that most of the length of the sample tube is visible from either side, and there is a small hole in the bottom insulating plate, with a mount for an optical fiber. A Glassman EH regulated power supply provided 0-15 kV DC.
A low power monitoring continuous-wave laser beam at a wavelength of 532 nm, defocused in one direction with a cylindrical lens to generate a pencil-shaped beam, was directed through the electrode gap 20 and illuminated the length of the sample tube. The transmitted light was imaged on white paper. Light scattered perpendicular to the beam was collected with an optical fiber attached at the bottom of the cell and monitored with a power meter.
(§2) Crystals formed in the test tubes were removed from the solution and dried. The structure of these crystals was analyzed by grinding up the crystal into a powder and obtaining an x-ray powder diffraction pattern.

[2] = supersaturated aqueous solutions
Text: Such species, when subjected to a DC electric field, will tend to migrate toward the electrode with the opposite charge, effectively increasing the supersaturation near the electrode, which in itself can be responsible for inducing nucleation.

[3] = Description: as §1, §2
Towler, C. S. et al., Journal of the American Chemical Society, Vol. 126, pp. 13347-13353 (2004).

[4] = average charge on a glycine molecule is zero; cited from earlier work
[5] = room temperature, approximately 20° C., water; cited from earlier work

- timescale on which macroscopic crystals form [1]: minutes
SMILES: C[C@H](N)C(=O)O [L-alanine]

- pH of aqueous glycine solutions exposed to DC fields [2]: 6.4-6.5
- percent of the exposed solutions that nucleated within the 10-minute exposure time ([1]; 1.85 SS, after 16 days aging): 24%
- percent of the exposed solutions that nucleated within the 10-minute exposure time ([1]; 1.9-2.0 SS, after 14 days aging): 33%
- percent of the exposed solutions that nucleated within the 10-minute exposure time ([1]; 1.9-2.0 SS, after 36 days aging): 40%
- % samples mixed α + γ ([1]; SS 1.85, DC field): 0%
- % samples pure α ([1]; SS 1.85, DC field): 50%
- % samples pure γ ([1]; SS 1.85, DC field): 50%
- % samples mixed α + γ ([1]; SS 1.9–2.0, DC field): 0%
- % samples pure α ([1]; SS 1.9–2.0, DC field): 0%
- % samples pure γ ([1]; SS 1.9–2.0, DC field): 100%
- time until crystallization observed ([1]; electric field strength 600,000 V/m): 30 to 90 min
- induction of nucleation by field exposure ([1]; field of 400,000 V/m, aged solutions): not sufficient to induce nucleation
- timescale on which macroscopic crystals form [1]: hours
- Spontaneous nucleation rate for a ten-minute time window ([3]; 1.85 SS, no field): 0.02%
- % samples mixed α + γ ([3]; SS 1.85, Spontaneous): 0%
- % samples pure α ([3]; SS 1.85, Spontaneous): 86%
- % samples pure γ ([3]; SS 1.85, Spontaneous): 14%
- % samples mixed α + γ ([3]; SS 1.9–2.0, Spontaneous): 27%
- % samples pure α ([3]; SS 1.9–2.0, Spontaneous): 13%
- % samples pure γ ([3]; SS 1.9–2.0, Spontaneous): 60%
SMILES: NCC(=O)O [glycine]
- isoelectric point (pH) [4]: 6.0
- saturation concentration csat [5]: 3.0 molal
